Experimental data taken from patent US8362031B2, “Lonidamine analogues and treatment of polycystic kidney disease” (University of Kansas, priority 2004, dated 2013).
“Also recorded” adds a separate entry of the source.

Columns and labels:
[1] = tested on: Salmonella Typhimurium TA 100; test: Ames test for mutagenicity (plate assay, colony count); conditions: 48 hours at 37° C.; for Ames test (+)S9 0.1 mg/pl. / Ames test (+)S9 1 mg/pl. / Ames test (+)S9 10 mg/pl.: (+)S9 mix; for Ames test (−)S9 0.1 mg/pl. / Ames test (−)S9 1 mg/pl. / Ames test (−)S9 10 mg/pl.: (−)S9 mix
Male Long Evans rats = test: In vivo antispermatogenic testing in Long Evans rats; conditions: for Mortality (25 mg/kg) / Response 25 mg/kg: 25 mg/kg single i.p. injection; for Response 25 mg/kg / Response 200 mg/kg: animals responding out of animals surviving, five days following injection; for Mortality (200 mg/kg) / Response 200 mg/kg: 200 mg/kg single i.p. injection
rats = test: Toxicology: organs sectioned and examined after dosing; assay type: in vivo; conditions: two animals examined, findings per animal
Experimental: In at least two of the animals in each group, the pancreas, right kidney and part of the liver, heart, spleen, and lung were removed and evaluated for toxic effects.
The toxicology of animals receiving some of the compounds of the present invention IP and/or oral was examined. At the time of sacrifice samples of liver, pancreas, heart, lung, spleen and kidney were removed, visually inspected, and immersion fixed in Bouin's solution for a minimum of 48 hours. All organs were then sectioned and examined for evidence of necrosis, inflammation, hemorrhage, and possible tumors. The major veins in each tissue were also examined for distention, especially in the liver and pancreas, and any other abnormalities are compared to known histopathological states. In addition to the above, the heart was examined for evidence of fibrosis in the muscular walls, and to compare the thickness of the ventricular walls. The pancreas was examined mainly for calcium deposits, while the lung was checked for signs of any exudates or hemorrhage, especially in the alveolar spaces. Finally, the kidney was examined mainly for microscopic hemorrhages, tubular necrosis or alterations in the glomeruli in the cortex.
In this example, the effects of RC-MC-30 were compared with those of lonidamine in sexually mature rats. As discussed above, each of the rats (8 total) received a single injection and were sacrificed five days after injection and examined.

SMILES | Ames test (+)S9 0.1 mg/pl. [1] | Ames test (+)S9 1 mg/pl. [1] | Ames test (+)S9 10 mg/pl. [1] | Ames test (−)S9 0.1 mg/pl. [1] | Ames test (−)S9 1 mg/pl. [1] | Ames test (−)S9 10 mg/pl. [1] | Mortality (25 mg/kg) (Male Long Evans rats) | Response 25 mg/kg (Male Long Evans rats) | Mortality (200 mg/kg) (Male Long Evans rats) | Response 200 mg/kg (Male Long Evans rats) | Toxicology: liver, lung, pancreas, spleen, heart and kidney (histology) (rats; 25 mg/kg) | Toxicology: liver, lung, pancreas, spleen, heart and kidney (histology) (rats; 200 mg/kg) | Staging 25 mg/kg (Male Long Evans rats; seminiferous tubule staging, 25 mg/kg i.p.) | Staging 200 mg/kg (Male Long Evans rats; seminiferous tubule staging, 200 mg/kg i.p.) | Toxicology: liver, lung, pancreas, spleen, heart and kidney (histology) (rats; 200 mg/kg, listed as JSW-1-162)
O=C(O)c1nn(Cc2ccc(Cl)cc2Cl)c2ncccc12 [RC-MC-86, 1-(2,4-dichlorobenzyl)-1H-pyrazolo[3,4-b]pyridine-3-carboxylic acid] | Pass | Pass | Pass | Pass | Pass | Pass | 0/5 | 0/5 | 0/5 | 5/5 |  |  |  |  | 
O=C(O)c1nn(Cc2ccc(Cl)cc2Cl)c2cccnc12 [JWS-1-114, 1-(2,4-dichlorobenzyl)-1H-pyrazolo[4,3-b]pyridine-3-carboxylic acid] | Pass | Pass | Pass | Pass | Pass | Pass | 0/5 | 1/5 | 0/5 | 0/5 | liver, lung, pancreas, spleen, heart and kidney that appeared within normal limits | The lung had massive pulmonary hemorrhaging around the bronchioles; also recorded: The liver had moderate sized (5-10 cell in diameter) necrotic patches generally in the periportal areas; also recorded: liver, lung, pancreas, spleen, heart and kidney that appeared within normal limits |  |  | 
NNC(=O)c1nn(Cc2ccc(Cl)cc2Cl)c2ccccc12 [AF2364, reference compound] |  |  |  |  |  |  | 0/5 | 3/5 | 0/5 | 5/5 |  |  | 3.5 | 2.1 | 
CCCOC(=O)c1nn(Cc2ccc(Cl)cc2Cl)c2ccccc12 [RC-MC-158, 1-[(2,4-dichlorobenzyl)-1H-indazole]-3-carboxylic acid propyl ester] | Mar- | Pass | Pass | Pass | Pass | Pass | 0/5 | 2/5 | 0/5 | 5/5 | liver, lung, pancreas, spleen, heart and kidney all appeared within normal limits; also recorded: The lung did have small scattered hemorrhagic areas, mainly around the alveoli and terminal bronchioles | The lung had multiple, large hemorrhagic areas, mainly in the alveolar regions with some hemosiderin deposits; also recorded: The lung contained multiple large hemorrhagic areas, mainly in the alveoli; also recorded: The liver contained small, scattered necrotic areas, generally around the portal veins |  |  | 
NNC(=O)c1nn(Cc2ccc(Cl)cc2Cl)c2cc(C(F)(F)F)ccc12 [RC-MC-101, 1-(2,4-dichlorobenzyl)-6-trifluoromethyl-1H-indazole-3-carboxylic acid hydrazide] | Pass | Pass | Pass | Pass | Pass | Pass | 0/5 | 0/5 | 0/5 | 0/5 |  |  |  |  | 
COC(=O)c1nn(Cc2ccc(F)cc2F)c2cc(Cl)ccc12 [JWS-1-280, 1-(2,4-difluorobenzyl)-6-chloro-1H-indazole-3-carboxylic acid methyl ester] | Pass | Pass | Pass | Pass | Pass | Pass | 0/5 | 0/5 | 0/5 | 0/5 |  |  |  |  | 
O=C(O)c1nn(Cc2ccc(Cl)cc2Cl)c2cc(F)ccc12 [JWS-1-162, 1-(2,4-dichlorobenzyl)-6-fluoro-1H-indazole-3-carboxylic acid] | Pass | Pass | Pass | Pass | Pass | Pass |  |  |  |  | liver, lung, pancreas, spleen, heart and kidney all appeared within normal limits |  |  |  | The lung had scattered hemorrhagic patches surrounding many of the small bronchioles; also recorded: The lung had moderate regions showing thickening of the alveolar walls, with a clear exudates slightly stained by eosin filling the alveoli
